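These data come from cells grown in 96-well plates and exposed to compound for 48 hours at five concentrations. Abbreviation: GI50, concentration required for 50% inhibition of growth.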 Calls of active or inactive are those of the source. No stated cut-off is given here; in the data, active = GI50 up to about 1.1 µM and inactive = higher.
Columns and labels:
Experiment in all cases: NCI anticancer screen, dose series, 48 h
[1] = system: SR
[2] = system: HCT-116
[3] = system: NCI/ADR-RES
[4] = system: RPMI-8226
[5] = system: ACHN
[6] = system: PC-3
[7] = system: KM12
[8] = system: SK-OV-3
[9] = system: OVCAR-3
[10] = system: HCC 2998
[11] = system: SF-295
[12] = system: COLO 205
[13] = system: LOX IMVI
[14] = system: MDA-MB-231
[15] = system: MOLT-4
[16] = system: SK-MEL-5
[17] = system: EKVX
[18] = system: RXF 393
[19] = system: OVCAR-5
[20] = system: OVCAR-8

SMILES | GI50 [1] | GI50 [2] | GI50 [3] | GI50 [4] | GI50 [5] | GI50 [6] | GI50 [7] | GI50 [8] | GI50 [9] | GI50 [10] | GI50 [11] | GI50 [12] | GI50 [13] | GI50 [14] | GI50 [15] | GI50 [16] | GI50 [17] | GI50 [18] | GI50 [19] | GI50 [20]
CCCCOc1ccc(NC(=N)Nc2ccc(Cl)cc2)cc1 | 3.38 µM (inactive) | 0.421 µM (active) | 2.28 µM (inactive) | 3.89 µM (inactive) | 0.462 µM (active) | 2.06 µM (inactive) | 12.5 µM (inactive) | 10.6 µM (inactive) | 10.2 µM (inactive) | 0.358 µM (active) | 2.3 µM (inactive) | 0.125 µM (active) | 3.05 µM (inactive) | 13.2 µM (inactive) | 1.42 µM (inactive) | 0.284 µM (active) | 2.37 µM (inactive) | 11.5 µM (inactive) | 1.68 µM (inactive) | 11.2 µM (inactive)
Fc1ccc2nc3n(c2c1)C(c1c(Cl)cccc1Cl)SC3 (configuration not stated) | 4.3 µM (inactive) | > 100 µM (inactive) | > 100 µM (inactive) | > 100 µM (inactive) | > 100 µM (inactive) | > 100 µM (inactive) | > 100 µM (inactive) | > 100 µM (inactive) | > 100 µM (inactive) | > 100 µM (inactive) | > 100 µM (inactive) | > 100 µM (inactive) | > 100 µM (inactive) | > 100 µM (inactive) | 6.71 µM (inactive) | > 100 µM (inactive) | – | > 100 µM (inactive) | > 100 µM (inactive) | > 100 µM (inactive)
COc1ccc2c(c1)C(=O)c1ccccc1C2 | 46.7 µM (inactive) | 36 µM (inactive) | 59.6 µM (inactive) | 46.8 µM (inactive) | > 100 µM (inactive) | 29.2 µM (inactive) | 63 µM (inactive) | 33.5 µM (inactive) | 82.2 µM (inactive) | 70.8 µM (inactive) | 36.5 µM (inactive) | 54.5 µM (inactive) | 49.9 µM (inactive) | 18.9 µM (inactive) | 28.6 µM (inactive) | 49.9 µM (inactive) | 39.6 µM (inactive) | 13.5 µM (inactive) | > 100 µM (inactive) | > 100 µM (inactive)
CC(C(=O)OCc1ccccc1)(c1ccco1)N1C(=O)OC(c2ccccc2)C1c1ccccc1 (configuration not stated) | > 34.8 µM (inactive) | > 100 µM (inactive) | > 100 µM (inactive) | 4.37 µM (inactive) | > 100 µM (inactive) | 6.01 µM (inactive) | > 25.8 µM (inactive) | > 100 µM (inactive) | > 100 µM (inactive) | > 100 µM (inactive) | > 100 µM (inactive) | > 100 µM (inactive) | 14.7 µM (inactive) | > 30.5 µM (inactive) | 5.05 µM (inactive) | > 30.1 µM (inactive) | 99.3 µM (inactive) | > 100 µM (inactive) | > 100 µM (inactive) | > 100 µM (inactive)
Cc1nc2ccccc2c(=O)n1/N=C(\N=N\c1cc(Cl)ccc1Cl)c1ccccc1 | 44.8 µM (inactive) | 17.4 µM (inactive) | 26.6 µM (inactive) | 41.4 µM (inactive) | > 84.9 µM (inactive) | 55.3 µM (inactive) | 10.3 µM (inactive) | > 63 µM (inactive) | 53.2 µM (inactive) | 32.1 µM (inactive) | 44.9 µM (inactive) | 61.1 µM (inactive) | 40.6 µM (inactive) | > 100 µM (inactive) | 35 µM (inactive) | 36.2 µM (inactive) | 20.7 µM (inactive) | 63.5 µM (inactive) | > 100 µM (inactive) | 65.9 µM (inactive)
CC(=O)Nc1ccc(S(=O)(=O)/N=C2\C=CC(=O)c3ccccc32)cc1 | 2.25 µM (inactive) | 5.24 µM (inactive) | 5.9 µM (inactive) | 4.56 µM (inactive) | 7.35 µM (inactive) | 3.28 µM (inactive) | 10.5 µM (inactive) | 16.5 µM (inactive) | 2.45 µM (inactive) | 3.21 µM (inactive) | 7.29 µM (inactive) | 13.3 µM (inactive) | 2.04 µM (inactive) | 2.78 µM (inactive) | 0.428 µM (active) | 2.88 µM (inactive) | 6 µM (inactive) | 6.38 µM (inactive) | 8.55 µM (inactive) | 2.8 µM (inactive)
COc1cccc2c(NNc3ccccc3)c3ccc([N+](=O)[O-])cc3nc12 | 18.7 µM (inactive) | 22.8 µM (inactive) | 41.5 µM (inactive) | 7.1 µM (inactive) | 20.2 µM (inactive) | 14.7 µM (inactive) | 11.6 µM (inactive) | 53.6 µM (inactive) | 50.2 µM (inactive) | 32.7 µM (inactive) | 27.5 µM (inactive) | 46.3 µM (inactive) | 13.6 µM (inactive) | 43.6 µM (inactive) | 1.03 µM (active) | 37.6 µM (inactive) | 78.2 µM (inactive) | 48.9 µM (inactive) | > 100 µM (inactive) | 31.1 µM (inactive)
CCOC(=O)c1sc2nc(SC)nc(Nc3ccc(OC)c(OC)c3)c2c1N | 20.9 µM (inactive) | 7.05 µM (inactive) | 3.48 µM (inactive) | 1.84 µM (inactive) | 13.2 µM (inactive) | 63.8 µM (inactive) | > 100 µM (inactive) | 12.9 µM (inactive) | 9.35 µM (inactive) | 60 µM (inactive) | 6.9 µM (inactive) | 83.4 µM (inactive) | > 100 µM (inactive) | 3.78 µM (inactive) | – | 3.61 µM (inactive) | 23.3 µM (inactive) | 3.33 µM (inactive) | > 100 µM (inactive) | 4.81 µM (inactive)
CCOC(=O)C1(C(N)=O)C(=O)c2ccncc2C1=O (configuration not stated) | > 100 µM (inactive) | > 100 µM (inactive) | > 100 µM (inactive) | > 100 µM (inactive) | > 100 µM (inactive) | > 100 µM (inactive) | > 100 µM (inactive) | > 100 µM (inactive) | > 100 µM (inactive) | > 100 µM (inactive) | > 100 µM (inactive) | > 100 µM (inactive) | > 100 µM (inactive) | > 100 µM (inactive) | – | > 100 µM (inactive) | > 100 µM (inactive) | > 100 µM (inactive) | > 100 µM (inactive) | > 100 µM (inactive)
C=C(Cl)C(Cl)(CBr)CCC(Br)C(C)(C)Br (configuration not stated) | 13.4 µM (inactive) | 1.74 µM (inactive) | 5.66 µM (inactive) | 0.426 µM (active) | 2.62 µM (inactive) | 2.31 µM (inactive) | 1.38 µM (inactive) | 17.2 µM (inactive) | 2.93 µM (inactive) | 5.75 µM (inactive) | 2 µM (inactive) | 2.75 µM (inactive) | 15.3 µM (inactive) | 11.9 µM (inactive) | 6.9 µM (inactive) | 16.6 µM (inactive) | 8.45 µM (inactive) | 1.8 µM (inactive) | 12.7 µM (inactive) | 4.3 µM (inactive)
COc1cc(/C=C/C(=O)OC2C(O)C3CC(OC(=O)c4cc(OC)c(OC)c(OC)c4)CC2N3C)cc(OC)c1OC (configuration not stated) | 10.1 µM (inactive) | 20.7 µM (inactive) | 13.7 µM (inactive) | 33 µM (inactive) | 21.9 µM (inactive) | 35.6 µM (inactive) | 25.3 µM (inactive) | 21.8 µM (inactive) | 8.02 µM (inactive) | 15 µM (inactive) | 23.4 µM (inactive) | 12.3 µM (inactive) | 15.3 µM (inactive) | 16.1 µM (inactive) | 46 µM (inactive) | 16.5 µM (inactive) | > 50 µM (inactive) | 15.9 µM (inactive) | > 50 µM (inactive) | 12.5 µM (inactive)
CC(C)NC(=O)OCc1c2c(n(C)c1COC(=O)NC(C)C)-c1cc(Cl)c(Cl)cc1CC2 | > 100 µM (inactive) | 24.8 µM (inactive) | 33.4 µM (inactive) | 23.4 µM (inactive) | 34.2 µM (inactive) | 32.9 µM (inactive) | 30.6 µM (inactive) | 33.7 µM (inactive) | 29.1 µM (inactive) | 14.9 µM (inactive) | 46.5 µM (inactive) | 31.3 µM (inactive) | 38.3 µM (inactive) | 15.5 µM (inactive) | 18.7 µM (inactive) | 42.7 µM (inactive) | 33.3 µM (inactive) | 21.7 µM (inactive) | 25.8 µM (inactive) | 31 µM (inactive)
OCC1OC(c2n[nH]c3c(O)ncnc23)C(O)C1O (configuration not stated) | 27.7 µM (inactive) | 7.28 µM (inactive) | 4.22 µM (inactive) | 21.9 µM (inactive) | 4.01 µM (inactive) | 6.68 µM (inactive) | 16.7 µM (inactive) | 2.89 µM (inactive) | 9.18 µM (inactive) | 18.7 µM (inactive) | 33.1 µM (inactive) | 13.9 µM (inactive) | 3.92 µM (inactive) | 3.66 µM (inactive) | 5.37 µM (inactive) | 21.5 µM (inactive) | 28 µM (inactive) | 58.6 µM (inactive) | 18.9 µM (inactive) | 4.11 µM (inactive)
O=C(Oc1cccc(Cl)c1)c1cc2cc(CCl)ccc2oc1=O | 63.8 µM (inactive) | 61.5 µM (inactive) | > 100 µM (inactive) | 61.7 µM (inactive) | 17.6 µM (inactive) | 26.1 µM (inactive) | 28.6 µM (inactive) | > 100 µM (inactive) | 39.8 µM (inactive) | 16 µM (inactive) | 71.1 µM (inactive) | 20.7 µM (inactive) | 40.6 µM (inactive) | > 100 µM (inactive) | 34.9 µM (inactive) | 16.9 µM (inactive) | 44.4 µM (inactive) | 20.7 µM (inactive) | > 100 µM (inactive) | > 100 µM (inactive)
